Patent US20160030391A1, “METHODS AND COMPOSITIONS FOR IMPROVING COGNITIVE FUNCTION” (THE JOHNS HOPKINS UNIVERSITY, priority 2013, published 2016)
Like-named read-outs stand apart in the source and are kept apart here.

Columns and labels:
[1] = system: aMCI subjects; assay: Benton Visual Retention Test; assay type: in vivo, human; details: levetiracetam 125 mg twice a day for two weeks
From the text: Breaks are provided to the subject as needed.

[2] = levetiracetam blood plasma levels in aMCI subjects; assay type: in vivo; details: human, upon completion of treatment, read-out: mean levetiracetam blood plasma level
From the text: At the end of the first drug/placebo period 2 weeks after the Baseline Visit, the medical, neurological and psychiatric evaluations and cognitive testing are repeated. The subject is also clinically evaluated for suicidal ideation. Blood is drawn again to repeat the standard tests and to determine whether there are any changes related to drug treatment; the subject's blood levetiracetam level is also obtained. All medication dispensed at the Baseline Visit (drug or placebo) is collected and subject compliance with the medication regimen is assessed. The first fMRI session (with cognitive tests) is conducted on the same day, either immediately before or immediately after the clinical assessment. Subjects discontinue first period treatment at this visit.
At approximately 2 weeks after the Washout Visit (i.e., 2 weeks after starting the second treatment period), the medical, neurological and psychiatric evaluations and the cognitive testing are repeated. The subject is clinically evaluated for suicidal ideation. Blood is drawn again to repeat the standard tests and to determine whether there were any changes related to drug treatment; the subject's blood levetiracetam level is also obtained. All medication dispensed at the Washout Visit is collected and subject compliance with the medication regimen is assessed. The second fMRI session (with cognitive tests) is repeated on the same day, either immediately before or immediately after the clinical assessment.
Human – in the human studies described in Examples 3 and 4, a subject's levetiracetam blood plasma level was assessed at each visit. The subject's blood was drawn by the Johns Hopkins Phlebotomy Service and analysis of levetiracetam blood plasma levels was conducted either by the Johns Hopkins Core laboratory or by MedTox Laboratories in St. Paul, Minn. for the 62.5 mg BID cohort, the 125 mg BID cohort and the 250 mg BID cohort.

[3] = system: Age-Impaired (AI) Long-Evans rats; assay: Morris Water Maze retention trial, levetiracetam in aged-impaired rats; assay type: in vivo, rat
Description: The MWM apparatus consists of a large, circular pool (diameter 1.83 m; height, 0.58 m) filled with water (27° C.) that is made opaque through the addition of non-toxic pigment or some other substance. In the typical “hidden platform” version of the test, rats are trained to find a camouflaged white escape platform (height, 34.5 cm) that is positioned in the center of one quadrant of the maze about 1.0 cm below the water surface. This platform can be retracted to the bottom of the tank or raised to its normal position from outside the maze during behavioral testing. The location of the platform remains constant from trial to trial. Because there are no local cues that mark the position of the platform, the rat's ability to locate it efficiently from any starting position at the perimeter of the pool depends on using information surrounding the maze. The maze is surrounded by black curtains to which white patterns are affixed to provide a configuration of spatial cues. A second platform (height 37.5 cm), with its surface painted black is elevated 2 cm above the water surface during cue training to control for factors unrelated to cognition. The behavior of a rat in the pool is recorded by a camera that is suspended 2.5 m above the center of the pool. The camera is connected to a video tracking system (HVS Image Advanced Tracker VP200) and a PC computer running HVS software developed by Richard Baker of HVS Image, Hampton, UK. The MWM protocol is optimized for sensitivity to the effects of aging on cognition and for measures of reliable individual differences within the aged population of out-bred Long-Evans rats (Gallagher et al. Behav. Neurosci. 107:618-626, (1993)). Rats receive three trials per day for 8 consecutive days, using a 60 sec inter-trial interval. On each training trial, the rat is released into the maze from one of four equally spaced starting positions around the perimeter of the pool. […] At the completion of the protocol using the hidden platform, rats are assessed for cue learning using the visible platform. […]

[4] = cited from earlier work

CC[C@@H](C(N)=O)N1CCCC1=O [levetiracetam, (2S)-2-(2-oxopyrrolidin-1-yl)butanamide]
performance in Benton Visual Retention Test [1]: fail to rescue performance | concentration at 2 weeks ([2]; 125 mg BID cohort): 4400 ng/mL | concentration at 2 weeks ([2]; oral, 62.5 mg BID cohort): 2880 ng/mL | concentration at 2 weeks ([2]; oral, 250 mg BID cohort): 7900 ng/mL | time spent in the target quadrant (performance vs vehicle) ([3]; levetiracetam 5 mg/kg/day i.p., retention trial 24 hours after two training days): did not significantly improve | time spent in the target annulus ([3]; levetiracetam 10 mg/kg/day i.p., retention trial): effectiveness of the 10 mg/kg/day levetiracetam treatment was also seen | time spent in the target quadrant, percentage of total swimming time ([3]; levetiracetam 10 mg/kg/day i.p., retention trial 24 hours after two training days): approximately 35% | Plasma half-life ([4]; expected in elderly due to decreased renal function): 9 to 10 h | time of peak plasma concentrations ([4]; following oral administration): about 1 hour | time to steady state ([4]; multiple twice-daily dosing): 2 days | Plasma half-life ([4]; oral administration): approximately 7±1 hour | absorption after oral administration ([4]; oral administration): rapidly and almost completely absorbed | effect of food on bioavailability ([4]; oral administration): not affected by food
